One series has as its system progesterone. Kind of series: circulating progesterone concentration, same clinical trial. In kind it is in vivo, human. The following applies: both cohorts (Concurrent-ABT and Delayed-ABT), exception of a single outlier subject, FIG. 3B. Here is the method: The experiments described in this example were conducted as part of a single-center, open-label, randomized, parallel-group clinical trial in 32 pre-menopausal women. Following screening assessments, and during the second half of the menstrual cycle, women received norethindrone (5 mg, three-times daily for 10 days) to synchronize menstrual cycles. […]
The main treatment outcomes and endpoints measured during these experiments included (i) a qualitative assessment of uterine blood loss, which was recorded on a daily basis throughout the study by characterizing each subject's bleeding pattern using one of the following four categories: “no bleeding,” “spotting” (light staining, dark blood, no sanitary protection needed or only panty liner), “bleeding” (1-4 completely soiled maxi sanitary towels or 1-8 soiled tampons or equivalent combination of the two), or “heavy bleeding” (>4 completely soiled maxi sanitary towels or >8 soiled tampons or equivalent combination of the two); (ii) a bi-weekly assessment of each subject's circulating E2 concentration; (iii) a bi-weekly assessment of each subject's circulating progesterone concentration (measured using a validated commercial chemiluminescence immunoassay method (Elecsys Progesterone III, Roche, Burgess Hill, UK)); (iv) the pharmacokinetic profile of compound (VI) and the add-back therapy; and (v) adverse events.

Series [1] is described as follows: half-life in a human patient. The following applies: in vivo, also the choline salt (VIa).
The target of a further series is T1, human GnRH receptor (Homo sapiens, UniProt P30968).
T1 sequence (P30968 1-328): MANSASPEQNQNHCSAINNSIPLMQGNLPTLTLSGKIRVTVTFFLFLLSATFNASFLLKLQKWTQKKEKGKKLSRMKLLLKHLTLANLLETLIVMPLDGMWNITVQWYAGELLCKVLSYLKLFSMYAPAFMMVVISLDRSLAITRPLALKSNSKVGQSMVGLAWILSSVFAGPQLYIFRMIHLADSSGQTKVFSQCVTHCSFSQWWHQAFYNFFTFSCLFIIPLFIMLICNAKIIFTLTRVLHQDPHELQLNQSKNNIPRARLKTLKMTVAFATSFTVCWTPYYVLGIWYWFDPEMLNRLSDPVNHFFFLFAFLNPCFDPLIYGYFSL
Kind of series: affinity for human GnRH receptor. It is filed as binding. The following applies: kind of constant not given; also for salts such as the choline salt.

The term half-life denotes how long it takes for the measured level to halve. By Ki is commonly meant a measure of affinity in units of concentration, obtained from inhibition or displacement. For the compound `COc1cc(F)c(-n2c(=O)[nH]c3csc(C(=O)O)c3c2=O)cc1OCc1c(OC)ccc(F)c1F` [Compound (VI), 3-[2-fluoro-5-(2,3-difluoro-6-methoxybenzyloxy)4-methoxyphenyl]-2,4-dioxo-1,2,3,4-tetrahydrothieno [3,4d]pyrimidine-5-carboxylic acid], in the series with progesterone, the circulating progesterone result was “sustained reduction in circulating progesterone”. In addition, the half-life in series [1] lay in the range of 14 to 15 h. Also, at human GnRH receptor, the Ki worked out at 27.4 nM.

The record behind these values is patent US20230067378A1, “COMPOSITIONS AND METHODS FOR THE TREATMENT OF ESTROGEN-DEPENDENT DISORDERS” (ObsEva S.A., priority 2018, published 2023).
